Measurements as given in ChEMBL document CHEMBL5380791, “Modular Biomimetic Strategy Enabled Discovery of Simplified Pseudo-Natural Macrocyclic P-Glycoprotein Inhibitors Capable of Overcoming Multidrug Resistance” (J Med Chem, 2023).
Calls of active or inactive are those of the source. No cut-off for these calls is given here.

How the values were obtained:
KBv200 [1] = assay: Reversal fold, ratio of vinorelbine IC50 for cytotoxicity against human KBv200 cells over test compound IC50 for reversal of vinorelbine resistance in human KBv200 cells; assay type: functional
KBv200 [2] = assay: Reversal of vinorelbine resistance in human KBv200 cells assessed as reduction in cell viability incubated for 72 hrs in presence of vinorelbine (reference value: 224 to 228.30 nM); assay type: functional, cell-based; conditions: KBv200, 72 h
K562 = assay: Reversal of vinorelbine resistance in human K562 cells assessed as reduction in cell viability incubated for 72 hrs in presence of vinorelbine (reference value: 5.9+/-0.2 nM); assay type: functional, cell-based; conditions: K562, 72 h
KB = assay: Reversal of vinorelbine resistance in human KB cells assessed as reduction in cell viability incubated for 72 hrs in presence of vinorelbine (reference value: 7.4+/-2.2 nM); assay type: functional, cell-based
K562/Adr = assay: Reversal of vinorelbine resistance in human K562/Adr cells assessed as reduction in cell viability incubated for 72 hrs in presence of vinorelbine (reference value: 7320.6+/-2115.2 nM); assay type: functional, cell-based
KBv200 [3] = assay: Reversal of adriamycin resistance in human KBv200 cells assessed as reduction in cell viability incubated for 72 hrs in presence of adriamycin (reference value: 1291.2+/-308.9 nM); assay type: functional, cell-based; conditions: KBv200, 72 h
NCI/ADR-RES = assay: Reversal of vinorelbine resistance in human NCI/ADR-RES cells assessed as reduction in cell viability incubated for 72 hrs in presence of vinorelbine (reference value: 6125.7+/-3267.7 nM); assay type: functional, cell-based
KBv200 [4] = assay: Reversal of paclitaxel resistance in human KBv200 cells assessed as reduction in cell viability incubated for 72 hrs in presence of paclitaxel (reference value: 392.9+/-196.5 nM); assay type: functional, cell-based; conditions: KBv200, 72 h
OVCAR-8 = assay: Reversal of vinorelbine resistance in human OVCAR-8 cells assessed as reduction in cell viability incubated for 72 hrs in presence of vinorelbine (reference value: 16.2+/-4.7 nM); assay type: functional, cell-based; conditions: OVCAR-8, 72 h
[5] = Toxicity in Balb/cA nude mouse xenografted with human KBv200 cells assessed as mortality at 75 mg/kg, ip qd administered for 13 days in presence of vinorelbine; assay type: organism-based; conditions: in vivo, 312 h, time 13 day
KBv200 [6] = assay: Antitumor activity against human KBv200 cells xenografted in Balb/cA nude mouse assessed as mean tumor volume at 8 mg/kg, iv administered as single dose and measured on day 0; assay type: functional
[7] = Toxicity in Balb/cA nude mouse xenografted with human KBv200 cells assessed as changes in body weight at 75 mg/kg, ip qd administered for 13 days in presence of vinorelbine; assay type: organism-based; conditions: in vivo, 312 h, time 13 day
KBv200 [8] = assay: Antitumor activity against human KBv200 cells xenografted in Balb/cA nude mouse assessed as T/C ratio at 8 mg/kg, iv q4d administered for 13 days; assay type: functional; conditions: time 13 day
KBv200 [9] = assay: Antitumor activity against human KBv200 cells xenografted in Balb/cA nude mouse assessed as mean tumor volume at 8 mg/kg, iv q4d administered for 13 days; assay type: functional; conditions: time 13 day
KBv200 [10] = assay: Induction of apoptosis in human KBv200 cells assessed as increase in cleaved caspase 3 level at 5 uM incubated for 24 hrs by Western blotting analysis; assay type: functional, cell-based
KBv200 [11] = assay: Induction of apoptosis in human KBv200 cells assessed as increase in cleaved caspase 9 level at 5 uM incubated for 24 hrs by Western blotting analysis; assay type: functional, cell-based
KBv200 [12] = assay: Antitumor activity against human KBv200 cells xenografted in Balb/cA nude mouse assessed as tumor growth inhibition at 8 mg/kg, iv q4d administered for 13 days; assay type: functional; conditions: KBv200, 312 h, time 13 day
KBv200 [13] = assay: Induction of apoptosis in human KBv200 cells assessed as increase in cleaved PARP level at 5 uM incubated for 24 hrs by Western blotting analysis; assay type: functional, cell-based

| Structure (SMILES) | Ratio IC50 (KBv200 [1]) | IC50 (KBv200 [2]; read-out: IC50) [nM] | other results |
| --- | --- | --- | --- |
| COc1ccc(/C2=C/C=C(/c3ccccc3)CNC(=O)CCCCCCCCCCCNC(=O)[C@H](C(C)C)NC2=O)cc1OC | 63 | 3.65 | – |
| COc1ccc(/C2=C/C=C(/c3ccccc3)C(=O)N[C@@H](C(C)C)C(=O)NCCCCCCCCCCCC(=O)NC2)cc1 | 148 | 1.54 | – |
| COc1ccc(CCN(C)CCCC(C#N)(c2ccc(OC)c(OC)c2)C(C)C)cc1OC (stereo not drawn) [VERAPAMIL] | 33 | – | IC50 (K562): 4.3 nM; IC50 (KB): 4.4 nM; IC50 (K562/Adr): 446 nM; IC50 (KBv200 [3]): 145 nM; IC50 (NCI/ADR-RES): 289 nM; IC50 (KBv200 [4]): 18.2 nM; IC50 (OVCAR-8): 8.5 nM; IC50 (KBv200 [2]): 6.96 nM |
| CC(C)[C@@H]1NC(=O)/C(c2ccccc2)=C/C=C(/c2ccccc2)CNC(=O)CCCCCCCNC1=O | 5 | 46.6 | – |
| NCCCC[C@@H]1NC(=O)/C(c2ccccc2)=C\C=C(\c2ccccc2)CNC(=O)CCCCCCCCCCCNC1=O | 0.8 | 289 | – |
| CSCC[C@@H]1NC(=O)/C(c2ccccc2)=C\C=C(\c2ccccc2)CNC(=O)CCCCCCCCCCCNC1=O | 184 | 1.24 | – |
| NC(=O)CC[C@@H]1NC(=O)/C(c2ccccc2)=C\C=C(\c2ccccc2)CNC(=O)CCCCCCCCCCCNC1=O | 1 | 210 | – |
| CC(C)[C@@H]1NC(=O)C(c2ccccc2)CCC(c2ccccc2)CNC(=O)CCCCCCCCCCCNC1=O (stereo partly drawn) | 64 | 3.58 | – |
| O=C1CCCCCCCCCCCNC(=O)[C@H](Cc2cn([C@@H]3O[C@H](CO)[C@@H](O)[C@H](O)[C@H]3O)nn2)NC(=O)/C(c2ccccc2)=C\C=C(\c2ccccc2)CN1 | 1.3 | 169 | – |
| O=C1CCCCCCCCCCCNC(=O)[C@@H]2CCCN2C(=O)/C(c2ccccc2)=C\C=C(\c2ccccc2)CN1 | 26 | 8.63 | – |
| CC(=O)N[C@@H]1[C@@H](O)[C@H](O)[C@@H](CO)O[C@H]1n1cc(C[C@@H]2NC(=O)/C(c3ccccc3)=C\C=C(\c3ccccc3)CNC(=O)CCCCCCCCCCCNC2=O)nn1 | 1.5 | 152 | – |
| O=C1CCCCCCCCCCCNC(=O)[C@H](Cc2ccccc2)NC(=O)/C(c2cccc3ccccc23)=C\C=C(\c2ccccc2)CN1 | 4566 | 0.05 | – |
| CC(C)[C@H]1NC(=O)/C(c2cccc3ccccc23)=C\C=C(\c2ccccc2)CNC(=O)CCCCCCCCCCCNC1=O | 1291 | 0.21 | – |
| O=C1CCCCCCCCCCCNC(=O)[C@H](Cc2ccc(O)cc2)NC(=O)/C(c2ccccc2)=C\C=C(\c2ccccc2)CN1 | 130 | 1.76 | – |
| O=C1CCCCCCCCCCCNC(=O)[C@H](Cc2c[nH]c3ccccc23)NC(=O)/C(c2ccccc2)=C\C=C(\c2ccccc2)CN1 | 2 | 140 | – |
| CC(C)[C@@H]1NC(=O)/C(c2ccc(Br)cc2)=C\C=C(\c2ccccc2)CNC(=O)CCCCCCCCCCCNC1=O | 570 | 0.4 | – |

| Structure (SMILES) | Ratio IC50 (KBv200 [1]) | IC50 (KBv200 [2]; read-out: IC50) [nM] | other results |
| --- | --- | --- | --- |
| CC(C)[C@@H]1NC(=O)/C(c2cccc3ccccc23)=C\C=C(\c2ccccc2)CNC(=O)CCCCCCCCCCCNC1=O | 761 | 0.3 | – |
| CC(C)[C@@H]1NC(=O)/C(c2ccccc2)=C\C=C/CNC(=O)CCCCCCCCCCCNC1=O | 61 | 3.76 | – |
| CC(C)[C@@H]1NC(=O)/C(c2ccccc2)=C\C=C(\c2ccccc2)CNC(=O)CCCCCCCCCNC1=O | 50 | 4.57 | – |
| CC(C)[C@@H]1NC(=O)/C(c2ccccc2)=C\C=C(\c2ccccc2)CNC(=O)CCOCCOCCOCCNC1=O | 1.8 | 127 | – |
| COc1ccc(/C2=C/C=C(/c3ccccc3)CNC(=O)CCCCCCCCCCCNC(=O)[C@H](C(C)C)NC2=O)cc1 | 519 | 0.44 | – |
| O=C1CCCCCCCCCCCNC(=O)[C@H](Cc2ccccc2)NC(=O)/C(c2ccccc2)=C\C=C(\c2ccccc2)CN1 | 601 | 0.38 | – |
| CC(C)[C@@H]1NC(=O)/C(c2ccccc2)=C\C=C(\c2ccc(F)cc2)CNC(=O)CCCCCCCCCCCNC1=O | 543 | 0.42 | – |
| CC(C)C[C@@H]1NC(=O)/C(c2ccccc2)=C\C=C(\c2ccccc2)CNC(=O)CCCCCCCCCCCNC1=O | 415 | 0.55 | – |
| CC(C)[C@H](NC(=O)/C(=C/C=C(/CNC(=O)CCCCCCCCCCCN)c1ccccc1)c1ccccc1)C(=O)O | 1.1 | 199 | – |
| C#CC[C@@H]1NC(=O)/C(c2ccccc2)=C\C=C(\c2ccccc2)CNC(=O)CCCCCCCCCCCNC1=O | 63 | 3.64 | – |
| O=C1CCCCCCCCCCCNC(=O)CNC(=O)/C(c2ccccc2)=C\C=C(\c2ccccc2)CN1 | 9 | 24.5 | – |
| O=C1CCCCCCCCCCCNC(=O)[C@H](Cc2cn([C@@H]3O[C@H](CO)[C@H](O)[C@H](O)[C@H]3O)nn2)NC(=O)/C(c2ccccc2)=C\C=C(\c2ccccc2)CN1 | 1.6 | 140 | – |
| CC(C)[C@@H]1NC(=O)/C(c2ccccc2)=C\C=C(\c2ccccc2)CNC(=O)CCCCCCCCCCCNC1=O | 192 | 1.19 | – |
| CC(C)C1NC(=O)/C(c2ccccc2)=C\C=C(\c2ccccc2)CNC(=O)CCCCCCCCCCCNC1=O (stereo not drawn) | 202 | 1.13 | – |
| CCC1=C[C@@H]2CN(C1)Cc1c([nH]c3ccccc13)[C@@](C(=O)OC)(c1cc3c(cc1OC)N(C)[C@H]1[C@@](O)(C(=O)OC)[C@H](OC(C)=O)[C@]4(CC)C=CCN5CC[C@]31[C@@H]54)C2 [VINORELBINE] | – | – | Activity [5]: Non-Toxic; Activity (KBv200 [6]): 122.3 mm3; Activity [7]: Non-Toxic; T/C (KBv200 [8]): 82%; Activity (KBv200 [9]): 1727.4 mm3; Activity (KBv200 [10]): inactive; Activity (KBv200 [11]): inactive; inhibition in vivo at 8 mg/kg (KBv200 [12]): 18%; Activity (KBv200 [13]): inactive |
| CC(=O)N[C@@H]1[C@@H](OC(C)=O)[C@H](OC(C)=O)[C@@H](COC(C)=O)O[C@H]1n1cc(C[C@@H]2NC(=O)/C(c3ccccc3)=C\C=C(\c3ccccc3)CNC(=O)CCCCCCCCCCCNC2=O)nn1 | 0.9 | 248 | – |
